Test results published in patent US20040115790A1, “Method for production of secreted proteins in fungi” (priority 2001, published 2004).

Assays:
[1] = test system: T. reesei Rut-C30; test: Metabolic labelling (35S-methionine): total protein synthesis and secretion in treated T. reesei cultures; type: cell-based, Trichoderma reesei; details: percentage of non-treated control cultures, 5 μM A23187, 50 μg/ml BFA or 10 mM DTT; for Total protein secretion rate: TCA insoluble radioactivity in culture supernatant
[2] = test system: T. reesei Rut-C30; test: Synthesis and secretion of labelled CBHI (2D gel, phosphorimager) in treated T. reesei cultures; type: cell-based, Trichoderma reesei; details: for CBHI synthesis rate / CBHI secretion rate: percentage of non-treated control cultures; for CBHI secretion rate: production into culture medium; for Minimum secretion time of CBHI: untreated cells 11 min
Experimental: Proteins were metabolically labelled with ^35S-methionine using the methods described in (Pakula et al. 2000). The preparation of the samples and analysis of the labelled proteins were carried out essentially as in (Pakula et al. 2000). The labelling experiment was started after 10 min of addition of DTT or A23187 or after 15 min of addition of BFA. 1 mCi of [^35S]-methionine (Amersham S J 1015, in vivo cell labelling grade, 1000 Ci mmol^−1, 10 μCi μl^−1) was added to a 50 ml aliquot of the cultivation. Untreated cultures were labelled in parallel and in a similar manner. Samples of 2 ml were collected during a time course. Labelled total protein in cell extracts and culture supernatant was measured using scintillation counting of TCA insoluble material in the samples, and labelled specific proteins (e.g. CBHI) were analysed using 2D gel electrophoresis, and the proteins were quantified using a phosphorimager (Molecular Dynamics). The rates of protein synthesis and secretion, and the average synthesis time and minimum secretion time were determined as described in Pakula et al. 2000.
The effect of the treatments on the synthesis of extracellular proteins, specifically, and on their transport was studied using the major cellulase produced by the fungus, cellobiohydrolase I (CBHI), as a model protein. […] The effect of the treatment with the ionophore A23187 on protein transport was less pronounced. Formation of the full pI pattern of CBHI was delayed by 15-20 minutes compared to the control cells, and CBHI with full pattern of the pI forms was secreted into the culture medium but with a delay.
The labelled CBHI from samples of cell extract and culture supernatant at different time points of the labelling experiment was analysed in 2D gels and quantified using a phosphorimager (Molecular Dynamics). Parameters, such as the synthesis and secretion rate of CBHI (the amount of labelled protein produced per time unit) as well as the average synthesis time and the minimum secretion time of CBHI, were determined (for the method see Pakula et al. 2000). The quantification of the labelled CBHI during the labelling experiment is shown in FIG. 3, and the deduced parameters describing the synthesis and secretion of CBHI in these conditions are summarised in the Table 1. The average synthesis time of full-length CBHI was not affected in the DTT and BFA treated cultures, being in accordance with the result that total protein synthesis is not affected by these treatments (see above).

[3] = test system: A. niger AB4.1; test: Northern analysis of transcript levels in DTT treated A. niger cultures; type: cell-based, Aspergillus niger; details: 20 mM DTT
Experimental: The Aspergillus niger strains used in the experiments were AB4.1 (van Hartingsveldt et al., 1987) and AS1.1 (Ngiam et al., 2000). Spores resuspended in 0.1% Tween 20 (Sigma, UK) were used to inoculate liquid cultures to a final density of 1×10^5 spores per ml of medium. The strains were maintained on potato dextrose agar slopes (Difco, USA) with a supplement of 10 mM uridine for A. niger AB4.1. Slopes were grown at 30° C. until they had sporulated and made fresh for each experiment. ACMS/N/P medium (Archer et al., 1990) was used for all the experiments involving liquid culture. A. niger AB4.1 cultures were again supplemented with 10 mM uridine. Cultures were grown in 100 ml aliquots of medium in 250 ml conical flasks at 25° C. and 150 rpm. In the DTT stress experiments, AB4.1 cultures were grown for 44 hours before addition of 1 ml of 2M DTT solution to give a final concentration of 20 mM. […]
Total RNA was extracted from 100 mg of freeze dried, ground mycelia using the RNeasy Plant Mini Kit (Qiagen, UK) according to the manufacturer's instructions. RNA was quantified by reading absorbances at 230, 260 and 280 nm on a Uvikon 850 spectrophotometer (Kontron Instruments, UK). Ratios of over 2.0 for the 260 nm:280 nm readings were accepted as being indicative of good quality RNA. RNA quality was also assessed by running samples on 7% formaldehyde gels (Sambrook et al., 1989). […]

[4] = test system: T. reesei Rut-C30; test: Northern analysis of transcript levels in treated T. reesei cultures; details: for Expression of the short form of hac1 mRNA: normalised with total hac1 signal
Experimental: T. reesei strain Rut-C30 (Montenecourt & Eveleigh, 1979) was cultivated on minimal medium ((H4)2SO4 7.6 g l^−1, KH2PO4 15.0 g l^−1, MgSO4.7H2O 0.5 g l^−1, CaCl2.H2O 0.2 g l^−1, CoCl2 3.7 mg l^−1, FeSO4.7H2O 5 mg l^−1, ZnSO4.7H2O 1.4 mg l^−1, MnSO4.7H2O 1.6 mg l^−1, pH adjusted to 5.2 with KOH) that contained lactose 20 g l^−1 as a carbon source. Spore suspension with 2×10^7 spores (stored in −80° C. in 20% glycerol) was inoculated into 200 ml of the medium, grown in shake flasks at 28° C. with shaking at 210 rpm. After 4 days of cultivation the cultures were diluted 1/10 into fresh medium, grown further for 24 h, and treated either with 10 mM dithiothreitol (DTT), 50 μg/ml brefeldin A (BFA) or 5 μM Ca^2+-ionophore A23187. A corresponding volume of the solvent of the stock solution was added into the untreated control cultures (0.2% and 0.5% DMSO for the control cultures for A23187 and BFA treatment, respectively, and double distilled water for the control for DTT treatment).
For the Northern analysis mycelial samples were collected from cultures treated with DTT, BFA or A23187 and from the untreated control cultures after 0, 15, 30, 60, 90, 120, 240 and 360 minutes of the treatment. The first sample (the time point 0 min was withdrawn immediately before addition of DTT, BFA or A23187). The mycelium was filtered, washed with equal volume of 0.7% NaCl, frozen immediately in liquid nitrogen, and stored at −80° C. Total RNA was isolated using the Trizol™ Reagent (Gibco BRL) essentially according to manufacturer's instructions. Northern blotting and hybridisation was carried out according to standard procedures (Sambrook et al). Full-length cDNA of the genes were used as probes.
Northern analysis of the samples collected during the treatment with A23187, DTT or BFA was carried out to study the effect of the treatments at transcriptional level.

[5] = 5 μM A23187, 50 μg/ml BFA or 10 mM DTT

Row | SMILES | Total protein secretion rate [1] [%] | CBHI synthesis rate [2, 5] | CBHI secretion rate [2, 5] | pdiA and bipA mRNA response [3] | Levels of pepA mRNA ([3]; control cultures show an increase) | Expression level of sar1 and ypt1 ([4]; 10 mM DTT) | Transcript level of xyn1 and hfb2 ([4]; 10 mM DTT) | Expression of the short form of hac1 mRNA [4] | Total protein synthesis rate ([1]; TCA insoluble radioactivity in cell extracts) [%] | Delay of formation of the full pI pattern of CBHI compared to the control cells ([2]; 5 μM A23187) | Increase of minimum secretion time of CBHI compared to the control cultures ([2]; 5 μM A23187) [min] | Prolongation of synthesis time of CBHI compared to the control cultures ([2]; 5 μM A23187) [min] | Average time of CBHI synthesis ([2]; untreated cells 5.7 min, 5 μM A23187, 50 μg/ml BFA or 10 mM DTT) [min] | Minimum secretion time of CBHI [2, 5] [min]
1 | O[C@H](CS)[C@H](O)CS (racemic) [DTT, dithiothreitol] | 5 | 4-24% | no production of labelled CBHI into the culture medium was detected | rapid response | no significant increase | not affected | reduced | expression of the shortened, actively translated form |  |  |  |  |  | 
2 | CNc1ccc2oc(C[C@H]3O[C@@]4(CC[C@H]3C)O[C@H]([C@H](C)C(=O)c3ccc[nH]3)[C@H](C)C[C@H]4C)nc2c1C(=O)O [A23187] | 23 | 26% | 27% |  |  |  |  | transient and rather weak expression | 51 | 15-20 minutes | 10 | 3 to 4 | 9 | 21
3 | C[C@H]1CCC/C=C/[C@@H]2C[C@H](O)C[C@H]2[C@H](O)/C=C/C(=O)O1 [BFA, brefeldin A] | 5 | 52% | 4% |  |  |  |  | expression of the shortened, actively translated form |  |  |  |  |  | 69
